According to US20210163976A1, “GENETICALLY ALTERED PLANTS EXPRESSING HETEROLOGOUS RECEPTORS THAT RECOGNIZE LIPO-CHITOOLIGOSACCHARIDES” (Aarhus Universitet, priority 2018, published 2021):

Tests used:
[1] = target: T1, Medicago truncatula NFP ectodomain (NFP-ECD, residues 28-246), wild type, SEQ ID NO: 1 (Medicago truncatula, UniProt Q0GXS4); test: Microscale thermophoresis (MST) binding of NFP to carbohydrate ligands
T1 construct: The Medicago truncatula NFP ectodomain (residues 28-246); AcMNPV gp67 signal peptide (replaces native signal peptide 1-27) (N); hexa-histidine tag (C); made in house; host or cells: Sf9 cells (Spodoptera frugiperda), baculovirus
Experimental: Expression and purification of Medicago NFP ectodomain: The Medicago truncatula NFP ectodomain (residues 28-246) was codon-optimized for insect cell expression (Genscript, Piscataway, USA) and cloned into the pOET4 baculovirus transfer vector (Oxford Expression Technologies). The native NFP signal peptide (residues 1-27, predicted by SignalP 4.1) was replaced with the AcMNPV gp67 signal peptide to facilitate secretion and a hexa-histidine tag was added to the C-terminus. Point mutants of NFP were engineered using site-directed mutagenesis. Recombinant baculoviruses were produced in Sf9 cells (Spodoptera frugiperda) using the FlashBac Gold kit (Oxford Expression technologies) according to the manufacturer's instructions with Lipofectin (ThermoFisher Scientific) as a transfection reagent. Protein expression was performed as follows. Suspension-cultured Sf9 cells were maintained with shaking at 299 K in serum-free MAX-XP (BD-Biosciences, discontinued) or HyClone SFX (GE Healthcare) medium supplemented with 1% Pen-Strep (10000 U/ml, Life technologies) and 1% CD lipid concentrate (Gibco). Protein expression was induced by adding recombinant passage 3 virus once the Sf9 cells reached a cell density of 1.0*10^7^6 cells/ml. After 5-7 days of expression, medium supernatant containing NFP ectodomains was harvested by centrifugation. This was followed by an overnight dialysis step against 50 mM Tris-HCl pH 8, 200 mM NaCl at 277 K. The NFP ectodomain was enriched by two subsequent steps of Ni-IMAC purification (HisTrap excel/HisTrap HP, both GE Healthcare). For crystallography experiments, N-glycans were removed using the endoglycosidase PNGase F (1:15 (w/w), room temperature, overnight). As a final purification step, NFP ectodomain was purified by SEC on a Superdex 200 10/300 or HiLoad Superdex 200 16/600 (both GE Healthcare) in phosphate buffered saline at pH 7.2 supplemented to a total of 500 mM NaCl (for binding assays) or 50 mM Tris-HCl, 200 mM NaCl (for crystallography). NFP ectodomain elutes as a single, homogeneous peak corresponding to a monomer. […]

[2] = target: T1, Medicago truncatula NFP ectodomain (NFP-ECD, residues 28-246), wild type, SEQ ID NO: 1; test: Biolayer interferometry (BLI) binding of NFP / NFP-ECD to immobilized LCO and CO ligands; settings: ligand binding tests, FIG. 3B
Experimental: (§1) Expression and purification of Medicago NFP ectodomain: The Medicago truncatula NFP ectodomain (residues 28-246) was codon-optimized for insect cell expression (Genscript, Piscataway, USA) and cloned into the pOET4 baculovirus transfer vector (Oxford Expression Technologies). The native NFP signal peptide (residues 1-27, predicted by SignalP 4.1) was replaced with the AcMNPV gp67 signal peptide to facilitate secretion and a hexa-histidine tag was added to the C-terminus. Point mutants of NFP were engineered using site-directed mutagenesis. Recombinant baculoviruses were produced in Sf9 cells (Spodoptera frugiperda) using the FlashBac Gold kit (Oxford Expression technologies) according to the manufacturer's instructions with Lipofectin (ThermoFisher Scientific) as a transfection reagent. Protein expression was performed as follows. Suspension-cultured Sf9 cells were maintained with shaking at 299 K in serum-free MAX-XP (BD-Biosciences, discontinued) or HyClone SFX (GE Healthcare) medium supplemented with 1% Pen-Strep (10000 U/ml, Life technologies) and 1% CD lipid concentrate (Gibco). Protein expression was induced by adding recombinant passage 3 virus once the Sf9 cells reached a cell density of 1.0*10^7^6 cells/ml. After 5-7 days of expression, medium supernatant containing NFP ectodomains was harvested by centrifugation. This was followed by an overnight dialysis step against 50 mM Tris-HCl pH 8, 200 mM NaCl at 277 K. The NFP ectodomain was enriched by two subsequent steps of Ni-IMAC purification (HisTrap excel/HisTrap HP, both GE Healthcare). For crystallography experiments, N-glycans were removed using the endoglycosidase PNGase F (1:15 (w/w), room temperature, overnight). As a final purification step, NFP ectodomain was purified by SEC on a Superdex 200 10/300 or HiLoad Superdex 200 16/600 (both GE Healthcare) in phosphate buffered saline at pH 7.2 supplemented to a total of 500 mM NaCl (for binding assays) or 50 mM Tris-HCl, 200 mM NaCl (for crystallography). NFP ectodomain elutes as a single, homogeneous peak corresponding to a monomer. Point mutated versions of NFP were expressed and purified following the same protocol.
(§2) Biolayer interferometry (BLI): Binding of NFP and mutated versions of NFP to ligands was measured on an Octet RED 96 system (Pall ForteBio). The ligands used were LCO-IV (from S. meliloti), LCO-V (from S. meliloti), LCO-V (from M. loti), and C06 (from M. loti). S. meliloti LCO consists of a tetrameric/pentameric N-acetylglucosamine backbone that is 0-sulfated on the reducing terminal residue, 0-acetylated on the non-reducing terminal residue, and mono-N-acylated by unsaturated C16 acyl groups. M. loti LCO is a pentameric N-acetylglucosamine with a cis-vaccenic acid and a carbamoyl group at the non-reducing terminal residue together with a 2,4-O-acetylfucose at the reducing terminal residue. Biotinylated ligand conjugates were immobilized on streptavidin biosensors (kinetic quality, Pall ForteBio) at a concentration of 125-250 nM for 5 minutes. The binding assays using the S. meliloti ligands (LCO-IV and LCO-V) were replicated seven times, while the binding assays using the M loti ligands (LCO-V and C06) were replicated six times. Data analysis was performed in GraphPad Prism 6 software (GraphPad Software, Inc.). Equilibrium dissociation constants derived from the steady-state were determined by applying a non-linear regression (one site, specific binding) to the response at equilibrium plotted against the protein concentration. Kinetic parameters were determined by non-linear regression (association followed by dissociation) on the subtracted data.
(§3) Mutated lipochitooligosaccharide (LCO) ligands: S. meliloti LCO consists of a tetrameric/pentameric N-acetylglucosamine backbone that is O-sulfated on the reducing terminal residue, O-acetylated on the non-reducing terminal residue, and mono-N-acylated by unsaturated C16 acyl groups. […]

[3] = target: T2, Medicago NFP ectodomain (NFP-ECD, WT) (Medicago truncatula, UniProt Q0GXS4); test: Biolayer interferometry (BLI) binding of NFP-ECD to immobilized biotinylated ligands
T2 construct: The Medicago truncatula NFP ectodomain (residues 28-246) was codon-optimized; AcMNPV gp67 signal peptide (replaces native signal peptide 1-27) (N); made in house; host or cells: Sf9 (Spodoptera frugiperda), baculovirus, secreted into medium
T2 sequence (Q0GXS4 28-246): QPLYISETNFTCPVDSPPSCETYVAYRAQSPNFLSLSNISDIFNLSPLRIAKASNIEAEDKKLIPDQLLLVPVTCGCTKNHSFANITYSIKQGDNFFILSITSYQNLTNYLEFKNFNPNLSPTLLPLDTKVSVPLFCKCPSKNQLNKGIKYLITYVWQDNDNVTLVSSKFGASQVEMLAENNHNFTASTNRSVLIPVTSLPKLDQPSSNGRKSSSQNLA
Experimental: as §1, §2, §3

[4] = target: T3, NFP L147D L154D ectodomain (Medicago truncatula, UniProt Q0GXS4, L147D/L154D); test: BLI binding of hydrophobic patch mutant NFP-ECD to S. meliloti LCO-IV
T3 construct: The Medicago truncatula NFP ectodomain (residues 28-246) was codon-optimized; AcMNPV gp67 signal peptide (replaces native signal peptide 1-27) (N); made in house; host or cells: Sf9 (Spodoptera frugiperda), baculovirus, secreted into medium
Excerpt: (§4) Creation of NFP point mutations: The NFP leucine residues L147 and L154 were replaced with aspartate residues. Aspartate is similar in size to leucine, but negatively charged where leucine is hydrophobic. Point mutants of NFP were engineered using site-directed mutagenesis. In particular, a double-mutated NFP was engineered where the leucine residues L147 and L154 were replaced with aspartate residues to create the mutant NFP L147D L154D. Point mutated versions of NFP were expressed and purified as described in Example 1.
(§5) NFP mutant binding assays: The binding assay using NFP wild type (WT) protein was replicated seven times, while the binding assay using the NFP mutant NFP L147D L154D was replicated four times.
Biolayer interferometry (BLI): Binding of NFP WT and NFP L147D/L154D mutant to S. meliloti LCO-IV was measured on an Octet RED 96 system (Pall ForteBio). S. meliloti LCO consists of a tetrameric/pentameric N-acetylglucosamine backbone that is O-sulfated on the reducing terminal residue, 0-acetylated on the non-reducing terminal residue, and mono-N-acylated by unsaturated C16 acyl groups. Biotinylated ligand conjugates were immobilized on streptavidin biosensors (kinetic quality, Pall ForteBio) at a concentration of 125-250 nM for 5 minutes. The binding assays were replicated 7 times for the NFP WT, and 4 times for the NFP L147D/L154D mutant. Data analysis was performed in GraphPad Prism 6 software (GraphPad Software, Inc.). Equilibrium dissociation constants derived from the steady-state were determined by applying a non-linear regression (one site, specific binding) to the response at equilibrium plotted against the protein concentration. Kinetic parameters were determined by non-linear regression (association followed by dissociation) on the subtracted data. Binding ofA. thaliana CERK1 (AtCERK1) to chitopentaose (C05) and chitooctaose (C08) was measured in the same way.

[5] = target: T4, Medicago truncatula NFP ectodomain (NFP-ECD) variant L147D/L154D (parent SEQ ID NO: 1) (Medicago truncatula, UniProt Q0GXS4, L147D/L154D); test: Biolayer interferometry (BLI) binding of hydrophobic patch mutant NFP L147D/L154D to S. meliloti LCO-IV
T4 construct: The Medicago truncatula NFP ectodomain (residues 28-246); AcMNPV gp67 signal peptide (replaces native signal peptide 1-27) (N); hexa-histidine tag (C); made in house; host or cells: Sf9 cells (Spodoptera frugiperda), baculovirus
Experimental: as §1, §4, §5
Biolayer interferometry (BLI): Binding of NFP WT and NFP L147D/L154D mutant to S. meliloti LCO-IV was measured on an Octet RED 96 system (Pall ForteBio). […] Equilibrium dissociation constants derived from the steady-state were determined by applying a non-linear regression (one site, specific binding) to the response at equilibrium plotted against the protein concentration. Kinetic parameters were determined by non-linear regression (association followed by dissociation) on the subtracted data. […]

T4 sequence (Q0GXS4 28-246 L147D/L154D): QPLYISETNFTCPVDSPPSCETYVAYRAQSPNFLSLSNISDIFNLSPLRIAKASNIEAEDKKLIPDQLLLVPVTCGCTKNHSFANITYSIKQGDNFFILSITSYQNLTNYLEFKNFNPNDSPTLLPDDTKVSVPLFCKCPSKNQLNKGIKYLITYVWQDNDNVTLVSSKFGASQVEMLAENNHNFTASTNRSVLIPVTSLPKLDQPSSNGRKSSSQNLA
T3 sequence (Q0GXS4 28-246 L147D/L154D): as above

With `OC[C@H]1O[C@H](O[C@H]2[C@H](O)[C@@H](O)[C@@H](O[C@H]3[C@H](O)[C@@H](O)[C@@H](O[C@H]4[C@H](O)[C@@H](O)[C@@H](O[C@H]5[C@H](O)[C@@H](O)[C@@H](O[C@H]6[C@H](O)[C@@H](O)C(O)O[C@@H]6CO)O[C@@H]5CO)O[C@@H]4CO)O[C@@H]3CO)O[C@@H]2CO)[C@H](O)[C@@H](O)[C@@H]1O` (some centres unmarked) [maltohexaose] the “Binding to NFP (in words)” value [1] was “not able to bind”.
`CCCCCC/C=C\CCCCC/C=C/C(=O)N[C@H]1[C@H](O[C@H]2[C@H](O)[C@@H](NC(C)=O)[C@H](O[C@H]3[C@H](O)[C@@H](NC(C)=O)[C@H](O[C@H]4[C@H](O)[C@@H](NC(C)=O)C(O)O[C@@H]4CO)O[C@@H]3CO)O[C@@H]2CO)O[C@H](COC(C)=O)[C@@H](O)[C@@H]1O` (some centres unmarked) [nodH-LCO-IV] was tested, and the “Binding of mutated LCOs to NFP (in words)” value [2] was “Dramatically reduced binding”, the “reduction of binding to NFP-ECD compared to wild type S. meliloti LCO-IV” value ([3]; BLI, FIGS. 15D-15E) was “more than 21 fold” and the “binding to NFP of mutated LCOs” value ([3]; FIG. 3B, Example 4) was “Dramatically reduced binding”.
With `CCCCCC/C=C\CCCCC/C=C/C(=O)N[C@H]1[C@H](O[C@H]2[C@H](O)[C@@H](NC(C)=O)[C@H](O[C@H]3[C@H](O)[C@@H](NC(C)=O)[C@H](O[C@H]4[C@H](O)[C@@H](NC(C)=O)C(O)O[C@@H]4COS(=O)(=O)O)O[C@@H]3CO)O[C@@H]2CO)O[C@H](COC(C)=O)[C@@H](O)[C@@H]1O` (some centres unmarked) [S. meliloti LCO-IV] the “affinity compared to NFP WT” value ([4]; FIG. 4B) was “approximately two times lower affinity”, the “association (Kon) compared to NFP WT” value ([4]; FIG. 4B) was “almost unaffected” and the “association rate (kon) faster than WT NFP-ECD” value ([4]; FIGS. 16A-16C) was 4.5 fold. For the same compound, the “dissociation rate (koff) increase compared to WT NFP-ECD” value ([4]; FIGS. 16A-16C) was 59 fold, the “lower affinity compared to WT NFP-ECD” value ([4]; FIGS. 16A-16C) was 13 fold and the “Affinity change versus NFP WT (in words)” value ([5]; FIG. 4B) was “approximately two times lower affinity”. For the same compound, the “Association (Kon) change versus NFP WT (in words)” value ([5]; FIG. 4B) was “almost unaffected”, the “Dissociation (Koff), times faster than NFP WT” value ([5]; FIG. 4B) was “approximately 15 times” and the “Association rate (kon), fold faster than WT NFP-ECD” value ([5]; FIGS. 16A-16C) was 4.5 fold. The “Dissociation rate (koff), fold increase compared to WT NFP-ECD” value ([5]; FIGS. 16A-16C) was 59 fold.
